The source of these data is PubChem BioAssay AID248 (DTP/NCI, 2004).

In this experiment the test system is L1210 leukemia ip in BDF1 mice, survival T/C. Kind of experiment: NCI In Vivo Anticancer Drug Screen. Data for tumor model L1210 Leukemia (intraperitoneal) in B6D2F1 (BDF1) mice. Conditions: endpoint: mean survival time, higher = longer survival. The method, boiled down: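 Mice bearing the transplanted tumor received compound or vehicle. Survival of the treated group was divided by that of the vehicle-treated control group to give the ratio.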

The mark [1] stands for this setting: dose: 25.0 mg/kg/injection, schedule: Q01DX009 (ip), vehicle: saline with Tween-80.
Where [2] appears, read: dose: 50.0 mg/kg/injection, schedule: Q01DX009 (ip), vehicle: saline with Tween-80.
[3] abbreviates: dose: 100.0 mg/kg/injection, schedule: Q01DX009 (ip), vehicle: saline with Tween-80.
Where [4] appears, read: dose: 100.0 mg/kg/injection, schedule: Q04DX003 (ip), vehicle: saline with Tween-80.
[5] abbreviates: dose: 200.0 mg/kg/injection, schedule: Q01DX009 (ip), vehicle: saline with Tween-80.
The mark [6] stands for this setting: dose: 200.0 mg/kg/injection, schedule: Q04DX003 (ip), vehicle: saline with Tween-80.
Where [7] appears, read: dose: 400.0 mg/kg/injection, schedule: Q04DX003 (ip), vehicle: saline with Tween-80.
The mark [8] stands for this setting: dose: 100.0 mg/kg/injection, schedule: Q04DX003 (ip), vehicle: Klucel (hydroxypropylcellulose) (HPC).
Setting [9] is: dose: 200.0 mg/kg/injection, schedule: Q04DX003 (ip), vehicle: Klucel (hydroxypropylcellulose) (HPC).
[10] abbreviates: dose: 400.0 mg/kg/injection, schedule: Q04DX003 (ip), vehicle: Klucel (hydroxypropylcellulose) (HPC).
The mark [11] stands for this setting: dose: 400.0 mg/kg/injection, schedule: Q01DX009 (ip), vehicle: saline with Tween-80.
The mark [12] stands for this setting: dose: 200.0 mg/kg/injection, schedule: Q01DX001 (ip), vehicle: saline.

Molecules are shown by their SMILES. “And” between values parts separate entries of the source, which are not always exact repeats. Identical values can stand only once. Inconclusive results and toxic doses are left out.

Consider `CCCCCC/C=C/C1CC(=O)OC1=O` (centres undefined), for which the T/C by setting is: under setting [1], 100 % of control; under setting [2], 88 % of control; (dose: 50.0 mg/kg/injection, schedule: Q04DX003 (ip), vehicle: saline with Tween-80) 98 % of control; under setting [3], 100 % of control; under setting [4], 101 % of control and 112 % of control; under setting [5], 97 % of control. Also, the T/C is 95 % of control and 101 % of control under setting [6]; 103 % of control under setting [7].
In the case of `Cc1cccc(NC(=S)NC(=O)CCc2ccccc2)c1C`, the T/C was 94 % of control and 88 % of control under setting [1]; 94 % of control and 88 % of control under setting [2]; 95 % of control (dose: 100.0 mg/kg/injection, schedule: Q01DX001 (ip), vehicle: saline with Tween-80); 95 % of control and 90 % of control (dose: 100.0 mg/kg/injection, schedule: Q04DX002 (ip), vehicle: saline with Tween-80); 86 % of control under setting [4]; 98 % of control (dose: 200.0 mg/kg/injection, schedule: Q01DX001 (ip), vehicle: saline with Tween-80). The T/C by setting is: (dose: 200.0 mg/kg/injection, schedule: Q04DX002 (ip), vehicle: saline with Tween-80) 93 % of control; under setting [6], 89 % of control; (dose: 400.0 mg/kg/injection, schedule: Q01DX001 (ip), vehicle: saline with Tween-80) 97 % of control; (dose: 400.0 mg/kg/injection, schedule: Q04DX002 (ip), vehicle: saline with Tween-80) 93 % of control and 102 % of control; under setting [7], 86 % of control.
Regarding `O=C(NCCCl)Nn1c2ccccc2c2ccccc21`, the T/C runs as follows: (dose: 100.0 mg/kg/injection, schedule: Q01DX009 (ip), vehicle: Klucel (hydroxypropylcellulose) (HPC)) 86 % of control; under setting [8], 104 % of control; (dose: 200.0 mg/kg/injection, schedule: Q01DX009 (ip), vehicle: Klucel (hydroxypropylcellulose) (HPC)) 95 % of control; under setting [9], 98 % of control; (dose: 400.0 mg/kg/injection, schedule: Q01DX009 (ip), vehicle: Klucel (hydroxypropylcellulose) (HPC)) 88 % of control; under setting [10], 106 % of control.
On to `O=c1cc(-c2ccccc2)[nH]c(=S)[nH]1`, for which the T/C under setting [3] was 94 % of control; the T/C under setting [4] is 101 % of control; the T/C under setting [6] was 103 % of control; the T/C under setting [11] was 89 % of control; the T/C under setting [7] is 106 % of control.
Regarding `C[Si](C)(C)Oc1ccccc1[Si](C)(C)c1ccccc1`, the T/C is, setting by setting: under setting [8], 101 % of control; under setting [9], 98 % of control; under setting [10], 102 % of control.
With `CC(=O)c1ccccc1C`, the T/C is 104 % of control (dose: 100.0 mg/kg/injection, schedule: Q01DX001 (ip), vehicle: saline) and 112 % of control under setting [12].
As for `O=C(N/N=C/c1cccc([N+](=O)[O-])c1)c1cccc2ccccc12`, the T/C was 92 % of control under setting [12] and 95 % of control (dose: 400.0 mg/kg/injection, schedule: Q01DX001 (ip), vehicle: saline).
On to `ClC(Cl)(Cl)CC(Br)C(Br)CBr` (centres undefined), for which the T/C is, setting by setting: (dose: 100.0 mg/kg/injection, schedule: Q01DX001 (ip), vehicle: acetone) 96 % of control; (dose: 100.0 mg/kg/injection, schedule: Q01DX009 (ip), vehicle: acetone) 95 % of control; (dose: 100.0 mg/kg/injection, schedule: Q04DX003 (ip), vehicle: acetone) 97 % of control; (dose: 200.0 mg/kg/injection, schedule: Q01DX001 (ip), vehicle: acetone) 98 % of control; (dose: 200.0 mg/kg/injection, schedule: Q04DX003 (ip), vehicle: acetone) 92 % of control; (dose: 400.0 mg/kg/injection, schedule: Q01DX001 (ip), vehicle: acetone) 98 % of control. The T/C (dose: 400.0 mg/kg/injection, schedule: Q04DX003 (ip), vehicle: acetone) is 91 % of control.
`Cc1ccccc1N=Nc1c(O)n(-c2ccc(Br)cc2)c(=S)n(-c2ccccc2)c1=O`: the T/C runs as follows: (dose: 37.5 mg/kg/injection, schedule: Q01DX001 (ip), vehicle: Klucel (hydroxypropylcellulose) (HPC)) 101 % of control; (dose: 75.0 mg/kg/injection, schedule: Q01DX001 (ip), vehicle: Klucel (hydroxypropylcellulose) (HPC)) 101 % of control; (dose: 150.0 mg/kg/injection, schedule: Q01DX001 (ip), vehicle: Klucel (hydroxypropylcellulose) (HPC)) 101 % of control.
In the case of `O=[N+]([O-])c1ccc(Cl)c(OCCCBr)c1`, the T/C under setting [8] was 108 % of control, the T/C under setting [9] is 95 % of control and the T/C under setting [10] was 94 % of control.
Take `CC(C)(C)OC(=O)NC(CC(N)=O)C(=O)ON1C(=O)CCC1=O` (centres undefined): the T/C (dose: 25.0 mg/kg/injection, schedule: Q01DX009 (ip), vehicle: saline) was 95 % of control; the T/C (dose: 50.0 mg/kg/injection, schedule: Q01DX009 (ip), vehicle: saline) is 99 % of control; the T/C (dose: 100.0 mg/kg/injection, schedule: Q01DX009 (ip), vehicle: saline) was 86 % of control; the T/C (dose: 100.0 mg/kg/injection, schedule: Q04DX002 (ip), vehicle: saline) was 108 % of control; the T/C (dose: 200.0 mg/kg/injection, schedule: Q01DX009 (ip), vehicle: saline) is 94 % of control and 99 % of control; the T/C (dose: 200.0 mg/kg/injection, schedule: Q04DX002 (ip), vehicle: saline) is 86 % of control. For the same molecule, the T/C (dose: 400.0 mg/kg/injection, schedule: Q01DX009 (ip), vehicle: saline) is 105 % of control and the T/C (dose: 400.0 mg/kg/injection, schedule: Q04DX002 (ip), vehicle: saline) was 105 % of control.
With `CCCC(=O)NC1=C(N2CC2)C(=O)C(NC(=O)CCC)=C(N2CC2)C1=O`, the T/C was 104 % of control (dose: 0.13 mg/kg/injection, schedule: Q01DX010 (oral), vehicle: saline); 110 % of control (dose: 0.25 mg/kg/injection, schedule: Q01DX010 (oral), vehicle: saline); 116 % of control (dose: 0.5 mg/kg/injection, schedule: Q01DX010 (oral), vehicle: saline); 116 % of control (dose: 1.0 mg/kg/injection, schedule: Q01DX010 (oral), vehicle: saline); 124 % of control (dose: 1.0 mg/kg/injection, schedule: Q01DX Z (ip), vehicle: saline); 166 % of control and 193 % of control (dose: 2.0 mg/kg/injection, schedule: Q01DX Z (ip), vehicle: saline). Moreover, the T/C was 154 % of control (dose: 4.0 mg/kg/injection, schedule: Q01DX010 (oral), vehicle: saline) and 100 % of control (dose: 8.0 mg/kg/injection, schedule: Q01DX Z (ip), vehicle: saline).
Consider `COC(=O)C(Br)CCBr` (centres undefined), for which the T/C by setting is: under setting [3], 94 % of control; under setting [4], 94 % of control; under setting [5], 95 % of control; under setting [6], 101 % of control; under setting [11], 100 % of control; under setting [7], 105 % of control.
Regarding `Cc1ncnc2c1ncn2C1OC(CO)C(O)C1O` (centres undefined), the T/C reads like this: (dose: 0.24 mg/kg/injection, schedule: Q01DX015 (ip), vehicle: saline) 103 % of control; (dose: 0.36 mg/kg/injection, schedule: Q01DX015 (ip), vehicle: saline) 106 % of control; (dose: 0.54 mg/kg/injection, schedule: Q01DX015 (ip), vehicle: saline) 116 % of control; (dose: 1.21 mg/kg/injection, schedule: Q01DX015 (ip), vehicle: saline) 109 % of control and 110 % of control.
In the case of `COc1cccc(CC#N)c1`, the T/C was 106 % of control (dose: 12.5 mg/kg/injection, schedule: Q01DX001 (ip), vehicle: saline with Tween-80); 93 % of control (dose: 25.0 mg/kg/injection, schedule: Q01DX001 (ip), vehicle: saline with Tween-80); 97 % of control (dose: 50.0 mg/kg/injection, schedule: Q01DX001 (ip), vehicle: saline with Tween-80).
